In patent publication US20230146455A1, “TREATMENT OF INFLAMMATORY DISEASES WITH PEPTIDES AND PHARMACEUTICAL COMPOSITIONS” (Yuyu Pharma, Inc., priority 2020, published 2023):
Where “and” joins values, the source holds several entries; their conditions need not be identical. Identical values can stand only once. Where a SMILES comes first, the peptide text is derived from it. [ ]: non-standard residue; d: D form. Hyp = O=C(O)[C@@H]1C[C@@H](O)CN1

Tests used:
[1] = system: IL-8/CXCL8; experiment: Example 8 main study Luminex, LPS hPBMCs: IL-8/CXCL8; assay type: cell-based, human; settings: for IL-8/CXCL8 Concentration: single replicates (1st, 2nd, 3rd)
Experimental: (§1) Human PBMCs were pretreated with YY-101, YDE-011, YDE-043 or reference compound; Xiidra® at various concentration (ranging from […] to 500 nM) for 2 h before stimulation. An equal volume of 0.5% DMSO was used as a vehicle control. Then, the cells were treated with LPS at 5 ug/ml, which was selected based on the pilot study. The supernatants from treated cells were harvested at 24 h and placed in a 96 well for Luminex cytokine & chemokine profiling using a Luminex 200 multiplex assay (Luminex; R&D system, USA).
(§2) The main study arm with triplicate wells per group in a 24-well plate: • 1. Blank • 2. PBMC: 0.5% DMSO • 3. PBMC+LPS (5 ug/ml) • 4. PBMC+YY-101 500 nM • 5. PBMC+YY-101 50 nM • 6. PBMC+YY-101 5 nM • 7. PBMC+YY-101 0.5 nM • 8. PBMC+LPS (5 ug/ml)+Xiidra® 500 nM • 9. PBMC+LPS (5 ug/ml)+Xiidra® 50 nM • 10. PBMC+LPS (5 ug/ml)+Xiidra® 5 nM • 11. PBMC+LPS (5 ug/ml)+Xiidra® 0.5 nM • 12. PBMC+LPS (5 ug/ml)+Xiidra® 0.05 nM • 13. PBMC+LPS (5 ug/ml)+Xiidra® 0.005 nM • 14. PBMC+LPS (5 ug/ml)+YY-101 500 nM • 15. PBMC+LPS (5 ug/ml)+YY-101 50 nM • 16. PBMC+LPS (5 ug/ml)+YY-101 5 nM • 17. PBMC+LPS (5 ug/ml)+YY-101 0.5 nM • 18. PBMC+LPS (5 ug/ml)+YY-101 0.05 nM • 19. PBMC+LPS (5 ug/ml)+YY-101 0.005 nM • 20. PBMC+LPS (5 ug/ml)+YDE-011 500 nM • 21. PBMC+LPS (5 ug/ml)+YDE-011 50 nM • 22. PBMC+LPS (5 ug/ml)+YDE-011 5 nM • 23. PBMC+LPS (5 ug/ml)+YDE-011 0.5 nM • 24. PBMC+LPS (5 ug/ml)+YDE-011 0.05 nM • 25. PBMC+LPS (5 ug/ml)+YDE-011 0.005 nM • 26. PBMC+LPS (5 ug/ml)+YDE-043 500 nM • 27. PBMC+LPS (5 ug/ml)+YDE-043 50 nM • 28. PBMC+LPS (5 ug/ml)+YDE-043 5 nM • 29. PBMC+LPS (5 ug/ml)+YDE-043 0.5 nM • 30. PBMC+LPS (5 ug/ml)+YDE-043 0.05 nM • 31. PBMC+LPS (5 ug/ml)+YDE-043 0.005 nM
(§3) Multiplex assay was used to measure 30 cytokines and chemokines. The 1:200 diluted cell supernatant and serial dilution of the standard were dispensed into a 96 well plate at 50 ul/well. Then, the pre-mixed cocktail of antibody-coated magnetic beads was dispensed at 50 ul/well and incubated at room temperature for 2 h in a horizontal orbital microplate shaker at 800±500 rpm. The beads were washed using a magnetic device to prevent loss. The biotin-antibody was dispensed in 50 ul of each well and incubated at room temperature for 1 h in a shaker at 800±500 rpm. After washing, streptavidin-PE was added at 50 ul/well and incubated at room temperature for 30 min in a shaker under the same conditions. Finally, after washing, wash buffer (100 ul/well) was added to the plate and incubated in a shaker for 2 min. The Luminex™ 200 setting were set according to the manufacturer's protocol. The data was calculated with a standard five-parameter logistic nonlinear regression analysis of the data (xPonent software 4.2, USA). Results were presented as concentration (ng/ml or pg/ml).

[2] = system: TIMP-1; experiment: Example 8 main study Luminex, LPS hPBMCs: TIMP-1; assay type: cell-based, human; settings: PBMC + LPS(5 ug/ml)
Experimental: as §1, §2, §3

[3] = PBMC + LPS(5 ug/ml) + test article 0.005 nM
[4] = PBMC + LPS(5 ug/ml) + test article 0.05 nM
[5] = PBMC + LPS(5 ug/ml) + test article 0.5 nM
[6] = PBMC + LPS(5 ug/ml) + test article 5 nM
[7] = PBMC + LPS(5 ug/ml) + test article 50 nM
[8] = PBMC + LPS(5 ug/ml) + test article 500 nM

CC(C)C[C@H](NC(=O)CNC(=O)[C@H](CC(C)C)NC(=O)[C@H](CCC(N)=O)NC(=O)CNC(=O)[C@@H]1C[C@@H](O)CN1)C(=O)N[C@@H](C)C(=O)NCC(=O)N1CCC[C@H]1C(=O)N[C@@H](CCCCN)C(=O)O [YDE-011] (H-[Hyp]GQLGLAGPK-OH)
IL-8/CXCL8 Concentration, Mean [1, 3]: 54720.2 pg/mL | IL-8/CXCL8 Concentration [1, 3]: 55905.6 pg/mL and 51994.7 pg/mL and 56260.2 pg/mL | IL-8/CXCL8 Concentration, Mean [1, 4]: 61143.7 pg/mL | IL-8/CXCL8 Concentration [1, 4]: 61568.6 pg/mL and 60755.7 pg/mL and 61106.8 pg/mL | IL-8/CXCL8 Concentration, Mean [1, 5]: 52309.1 pg/mL | IL-8/CXCL8 Concentration [1, 5]: 52927.0 pg/mL and 52269.8 pg/mL and 51730.5 pg/mL | IL-8/CXCL8 Concentration, Mean [1, 6]: 46534.3 pg/mL | IL-8/CXCL8 Concentration [1, 6]: 45587.7 pg/mL and 43107.6 pg/mL and 50907.7 pg/mL | IL-8/CXCL8 Concentration, Mean [1, 7]: 46922.1 pg/mL | IL-8/CXCL8 Concentration [1, 7]: 54235.8 pg/mL and 55272.7 pg/mL and 31257.8 pg/mL | IL-8/CXCL8 Concentration, Mean [1, 8]: 49501.9 pg/mL | IL-8/CXCL8 Concentration [1, 8]: 66288.2 pg/mL and 31741.3 pg/mL and 50476.2 pg/mL | LPS-induced IL-8 (in words) ([1]; at as low as 5 μM, LPS 5 ug/mL 24 hrs): significantly reduced | TIMP-1 Concentration (pg/ml), Mean ([2]; test article 0.005 nM): 4036.4 pg/mL | TIMP-1 Concentration (pg/ml), single replicates ([2]; test article 0.005 nM): 4259.2 pg/ml (2×) and 3590.9 pg/ml | TIMP-1 Concentration (pg/ml), Mean ([2]; test article 0.05 nM): 4288.3 pg/mL | TIMP-1 Concentration (pg/ml), single replicates ([2]; test article 0.05 nM): 4414.6 pg/mL and 3590.9 pg/mL and 4859.3 pg/mL | TIMP-1 Concentration (pg/ml), Mean ([2]; test article 0.5 nM): 4080.2 pg/mL | TIMP-1 Concentration (pg/ml), single replicates ([2]; test article 0.5 nM): 3590.9 pg/mL and 3935.4 pg/mL and 4714.4 pg/mL | TIMP-1 Concentration (pg/ml), Mean ([2]; test article 5 nM): 4128.5 pg/mL | TIMP-1 Concentration (pg/ml), single replicates ([2]; test article 5 nM): 4859.3 pg/mL and 3935.4 pg/mL and 3590.9 pg/mL | TIMP-1 Concentration (pg/ml), Mean ([2]; test article 50 nM): 4253.6 pg/mL | TIMP-1 Concentration (pg/ml), single replicates ([2]; test article 50 nM): 3935.4 pg/mL and 4259.2 pg/mL and 4566.3 pg/mL | TIMP-1 Concentration (pg/ml), Mean ([2]; test article 500 nM): 3820.5 pg/mL | TIMP-1 Concentration (pg/ml), single replicates ([2]; test article 500 nM): 3935.4 pg/ml (2×) and 3590.9 pg/ml
